Experimental data as given in patent US20190231793A1, “USE OF HARRINGTONINES IN THE TREATMENT OF BREAST CANCER, IN PARTICULAR TRIPLE-NEGATIVE BREAST CANCER” (priority 2016, published 2019).
Read-outs that look alike come from different tables or passages of the source.

Tests used:
[1] = cytotoxic = toxicity for tumor cells in culture; anticancer = data obtained in clinical trials; cited from earlier work
CAL-51 [2] = assay: Cell viability (SRB), inhibition of cell proliferation; type: cell-based
Procedure: (§1) Cell Lines: CAL-51 (PIK3CA mutated) and MDA-MB-157 (without apparent genomic alteration of the PI3K-AKT-mTOR axis (NF1, TP53 mutated) were cultured in DMEM+10% FCS+200 μg/ml gentamicin, in humidified atmosphere, at 5% CO 2.
(§2) Drug: commercial HHT (Sigma-Aldrich), purified by recrystallization according to Liu's technique [U.S. Pat. No. 62,073, 14 May 1987], was provided free of charge by LeukePharma (Le Mans, France). The stock solution of 20 mM HHT citrate was obtained by dissolution in citric acid (Sigma-Aldrich), in equimolar amount or by direct dissolution of the crystalline homoharringtonine salt in sterile purified water. The following dilutions of this stock solution were performed using sterile PBS buffer. All of the solutions was stored at −80° C.
(§3) Cell viability: The cells were seeded in the 96-well plates at the concentration of 5000 cells/well (3.3×10^4/ml) for the MDA-MB-lines, and at the concentration of 1000 cells/well (6.6×10 3 ml) for CAL-51. After 24 hours of rest, at the confluence of 50-60%, the cells were treated with increasing concentrations of HHT for 24 h, 48 h and 72 h. After washing twice with sterile PBS and 48 h rest, the cells were fixed with trichloroacetic acid. After the addition of […] (SRB), the absorbance was measured at 540 nm (Multiskan™ FC plate photometer, Thermo Scientific). IC50s were calculated by CompuSyn (Chou & Talalay, ComboSyn Inc., Paramus, N.J., USA).

MDA-MB-157 [3] = assay: as above; type: cell-based
Procedure: as §1, §2, §3

MDA-MB-231 [4] = assay: as above; type: cell-based; settings: Homo sapiens; for viability at 0.05 µM / viability at 0.1 µM: read-out: viable fraction (Fv=% of viable cells)
Procedure: (§4) MDA-MB-468 (PTEN, RB1, SMAD4, mutated TP53, amplified EGFR/ERBB1) and MDA-MB-231 (highly metastatic, without alteration of PI3K-Akt-mTOR; KRAS, BRAF, CDKN2A, PDGFRA, (NF2, Mutated TP53) were cultured in Liebowitz's medium+10% FCS+200 μg/ml gentamycin, in a CO2-free atmosphere
as §2, §3

MDA-MB-468 [5] = assay: as above; type: cell-based
Procedure: as §4, §2, §3

CAL-51 [6] = assay: Cell cycle by flow cytometry; type: cell-based; settings: CAL-51, 48 hours, 20 nM HHT
Procedure: (§5) Cell cycle and apoptosis: the number of cells in different phases of the cell cycle or in apoptosis was determined by flow cytometry using FITC Annexin V Apoptosis Detection Kit 1 (BD Biosciences) and following the manufacturer's recommendations. Briefly, 3×10^4 cells of each line were seeded in 6-well plates and, after 24 h resting, treated with increasing concentrations of HHT for 6-72 h, then washed and incubated with propidium iodide and or with FITC annexin V). The fluorescence was measured using a BD LSH II cytofluorometer (BD Biosciences).

MDA-MB-157 [7] = assay: Cell cycle by flow cytometry; type: cell-based; settings: MDA-MB-157, 48 hours, 50 nM HHT
Procedure: as §5

MDA-MB-231 [8] = assay: Cell cycle by flow cytometry; type: cell-based; settings: MDA-MB-231, 48 hours, 20 nM or 50 nM HHT
Procedure: as §5

MDA-MB-468 [9] = assay: Cell cycle by flow cytometry; type: cell-based; settings: MDA-MB-468, 48 hours, 20 nM or 50 nM HHT
Procedure: as §5

CAL-51 [10] = assay: Apoptosis by flow cytometry (FITC Annexin V); type: cell-based; settings: increasing concentrations, 6-72 h
Procedure: as §5

MDA-MB-157 [11] = assay: Apoptosis by flow cytometry (FITC Annexin V); type: cell-based; settings: increasing concentrations, 6-72 h
Procedure: as §5

MDA-MB-231 [12] = assay: Apoptosis by flow cytometry (FITC Annexin V); type: cell-based; settings: regardless of concentration or incubation time
Procedure: as §5

MDA-MB-468 [13] = assay: Apoptosis by flow cytometry (FITC Annexin V); type: cell-based; settings: increasing concentrations, 6-72 h
Procedure: as §5

Mcl-1 = assay: Western blot, expression of apoptosis regulatory proteins; type: cell-based; settings: 100 nM HHT; all lines analyzed except MDA-MB-231 (CAL-51, MDA-MB-468, MDA-MB-157)
Procedure: (§6) Western blot: 5×10^5 cells, in 10 ml of medium, were inoculated in the 100 mm Petri dishes. After 24 hours of rest, the cells were incubated with 100 nM of HHT for different times, staggered for 2 hours and 48 hours. Then, the cells were washed and lysed directly into the dishes (without trypsinization) using RIPA buffer (Pierce-ThermoScientific), containing a mixture of protease inhibitors (Sigma). The protein concentration was determined by the method of Bradford. Protein electrophoresis was performed in 12-30% polyacrylamide gels. After transfer to the PVDF membrane, the revelation was carried out by ECL Plus (Amersham).

XIAP = assay: as above; type: cell-based; settings: 100 nM HHT; compared with Mcl-1
Procedure: as §6

survivin = assay: as above; type: cell-based; settings: 100 nM HHT; CAL-51; same effect as for Mcl-1 (very fast and strong drop)
Procedure: as §6

[14] = system: apoptosis regulatory proteins in MDA-MB-231; assay: Western blot, expression of apoptosis regulatory proteins in line MDA-MB-231; type: cell-based; settings: 100 nM HHT
Procedure: as §6

MDA-MB-231 xenograft = assay: In vivo study on MDA-MB-231 triple negative breast tumor xenograft; parameters: species or system Swiss nudes immuno-depressed mice (nu/nu); settings: 1 mg of HHT (as salt) per kg subcutaneously twice daily for 8 days; difference between day 0 and day 10; control group increased 20-30%
Procedure: The efficacy of homoharringtonine in vivo on xenografts of the triple-negative breast cancer line (MDA-MB-231), was performed on Swiss nudes immuno-depressed mice (nu/nu), […]. −12 weeks. The tumor was grafted in 16 animals, by injecting 5×10^6 cells of the tumor strain, subcutaneously in the dorsal region, until a tumor volume of 200-300 mm 3 was obtained. 8 mice received 1 mg of HHT (as salt) per kg subcutaneously twice daily for 8 days. The control group (7 mice) received only physiological saline in the same dosage as HHT. Mice were sacrificed 3 days after stopping treatment, recovered xenografts, and measured tumor size. The tissues were then formalin-fixed and paraffin-embedded for subsequent histological analyzes.

[15] = 24 h, 48 h, 72 h, regardless of the concentrations (p>0.05)
[16] = Homo sapiens, 24 hours, range given for 3 out of 4 lines analyzed

COC(=O)CC(O)(CCCCC(C)(C)O)C(=O)OC1C(OC)=CC23CCCN2CCc2cc4c(cc2C13)OCO4 (stereo not shown) [(1e), bishomoharringtonine]
Activity [1]: none

COC(=O)C[C@](O)(CCCC(C)(C)O)C(=O)O[C@@H]1C(OC)=C[C@]23CCCN2CCc2cc4c(cc2[C@H]13)OCO4 [HHT, homoharringtonine]
effect on proliferation versus incubation time (CAL-51 [2]; [15]): independent of the incubation time
IC50 (CAL-51 [2]; [16]): 15.9 to 21.3 nM
effect on proliferation versus incubation time (MDA-MB-157 [3]; [15]): independent of the incubation time
IC50 (MDA-MB-157 [3]; [16]): 15.9 to 21.3 nM
viability at 0.05 µM (MDA-MB-231 [4]; MDA-MB-231, 24 h): 58.1 ± 14.5%
viability at 0.1 µM (MDA-MB-231 [4]; MDA-MB-231, 24 h): 41.7 ± 13.3%
viability at 0.05 µM (MDA-MB-231 [4]; MDA-MB-231, 72 h): 25.9 ± 2.4%
viability at 0.1 µM (MDA-MB-231 [4]; MDA-MB-231, 72 h): 18.7 ± 4.8%
IC50 (MDA-MB-231 [4]; MDA-MB-231, 24 hours): 80.5 nM
effect on proliferation versus incubation time (MDA-MB-468 [5]; [15]): independent of the incubation time
IC50 (MDA-MB-468 [5]; [16]): 15.9 to 21.3 nM
effect on the cell cycle (CAL-51 [6]): accumulation of CAL-51 and MDA-MB-157 cells in Set GO/G1 phase
effect on the cell cycle (MDA-MB-157 [7]): accumulation of CAL-51 and MDA-MB-157 cells in Set GO/G1 phase
effect on the cell cycle (MDA-MB-231 [8]): stopped in the G2/M phase
effect on the cell cycle (MDA-MB-468 [9]): stopped in the G2/M phase
effect on apoptosis (% of cells in early and late apoptosis) (CAL-51 [10]): induces apoptosis of CAL-51, MDA-MB-468 and MDA-MB-157 cells in a concentration and time dependent manner
effect on apoptosis (% of cells in early and late apoptosis) (MDA-MB-157 [11]): induces apoptosis of CAL-51, MDA-MB-468 and MDA-MB-157 cells in a concentration and time dependent manner
effect on apoptosis (% of cells in early and late apoptosis) (MDA-MB-231 [12]): no significant apoptosis was observed
effect on apoptosis (% of cells in early and late apoptosis) (MDA-MB-468 [13]): induces apoptosis of CAL-51, MDA-MB-468 and MDA-MB-157 cells in a concentration and time dependent manner
level of Mcl-1 (Mcl-1): very fast and strong drop
reduction in the XIAP rate (XIAP): more modest and occurred later
level of survivin (survivin): same effect
level of apoptosis regulatory proteins [14]: no effect
decrease in tumor volume (MDA-MB-231 xenograft): 20 to 60%
Activity [1]: anticancer

COC(=O)C[C@](O)(CCC(C)(C)O)C(=O)O[C@@H]1C(OC)=C[C@]23CCCN2CCc2cc4c(cc2[C@H]13)OCO4 [(1a), harringtonine]
Activity [1]: anticancer

COC(=O)CC(O)(CC(C)(C)O)C(=O)OC1C(OC)=CC23CCCN2CCc2cc4c(cc2C13)OCO4 (stereo not shown) [(1c), norharringtonine]
Activity [1]: none

neoharringtonine [(1g)]
Activity [1]: cytotoxic

COC(=O)[C@@H](O)[C@](O)(CCC(C)C)C(=O)O[C@@H]1C(OC)=C[C@]23CCCN2CCc2cc4c(cc2[C@H]13)OCO4 [(1f), isoharringtonine]
Activity [1]: none

COC(=O)C[C@](O)(CCC(C)C)C(=O)O[C@@H]1C(OC)=C[C@]23CCCN2CCc2cc4c(cc2[C@H]13)OCO4 [(1d), deoxyharringtonine]
Activity [1]: anticancer
